Some test systems named below: A549 NSCLC; CAKI-1 renal; EKVX NSCLC; MALME-3M melanoma; SF-295 CNS; SF-539 CNS; SK-MEL-2 melanoma; SNB-19 CNS; SW-620 colon; UO-31 renal.
Holding throughout (assay): growth of human tumour cells (NCI), 48 h

“And” between values parts separate entries of the source, which are not always exact repeats. Equal entries are not always repeated.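 The compound was tested at five concentrations on cells cultured in 96-well plates, with a 48-hour exposure period. TGI: total growth inhibition.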 A value given as a limit tells only on which side of the number the result lay.

Take `Cc1ccc(C(=O)NC2C(=O)NC(C(C)C)C(=O)N3CCCC3C(=O)N(C)CC(=O)N(C)C(C(C)C)C(=O)OC2C)c2c1Oc1c(c(C(=O)NC3C(=O)NC(C(C)C)C(=O)N4CCCC4C(=O)N(C)CC(=O)N(C)C(C(C)C)C(=O)OC3C)c3nc(-c4ccccc4)c(=O)oc3c1C)N2` (stereo not given): the TGI was greater than 100 µM in the test with A549 NSCLC; greater than 100 µM in the test on CAKI-1 renal; 0.0944 µM and 0.0316 µM in the test with EKVX NSCLC; 0.195 µM and 0.0239 µM with MALME-3M melanoma; 0.12 µM with SF-295 CNS; 0.00264 µM with SF-539 CNS. The TGI is 0.00278 µM in the test on SK-MEL-2 melanoma; 21.4 µM in the test with SNB-19 CNS; 12 µM in the test with SW-620 colon; 0.194 µM and 0.122 µM in the test with UO-31 renal.

As to `CCCCCCC(=O)OC[n+]1ccc(-c2c(COC(=O)NC(C)C)c(COC(=O)NC(C)C)c3n2CCC3)cc1`, the TGI is greater than 100 µM in the test on A549 NSCLC; 99.4 µM in the test with CAKI-1 renal; greater than 100 µM with EKVX NSCLC; greater than 100 µM in the test with MALME-3M melanoma; greater than 100 µM with SF-295 CNS; greater than 100 µM in the test on SF-539 CNS. Moreover, the TGI in the test on SK-MEL-2 melanoma, in the test with SNB-19 CNS, in the test on SW-620 colon and in the test with UO-31 renal was greater than 100 µM throughout.

Take `[O-]c1c2c(nn1-c1ccc(F)cc1)c1ccccc1c[n+]2Cc1ccccc1`: the TGI in the test with A549 NSCLC was 73.1 µM; with CAKI-1 renal it was 94.7 µM; in the test on EKVX NSCLC, 56.4 µM; with MALME-3M melanoma it was 25.6 µM; with SF-295 CNS, 40.4 µM; with SF-539 CNS it was 8.57 µM. The TGI in the test with SK-MEL-2 melanoma was 9.23 µM; with SNB-19 CNS, greater than 100 µM; with SW-620 colon, 48.7 µM; with UO-31 renal, 54.9 µM.

Consider `C/C=C\C1OC1(C)c1cc(=O)c2c(C)cc3c(c2o1)C(=O)c1c(O)c(C2CC(C)(N(C)C)C(OC(C)=O)C(C)O2)cc(C2CC(N(C)C)C(O)C(C)O2)c1C3=O` (stereo not given), for which the TGI in the test on A549 NSCLC was found to be 0.482 µM; in the test on CAKI-1 renal it was 0.0431 µM; in the test on EKVX NSCLC it was 0.0224 µM; with MALME-3M melanoma it was 0.0566 µM; with SF-295 CNS, 0.00762 µM; with SF-539 CNS it was 0.0121 µM. Besides, the TGI in the test with SK-MEL-2 melanoma stood at 0.00657 µM; in the test with SNB-19 CNS it was 0.103 µM; in the test with SW-620 colon it was 0.0369 µM; in the test with UO-31 renal it was 0.0106 µM.

For `Nc1c(S(=O)(=O)O)cc(S(=O)(=O)O)c2ccc(N=Nc3ccccc3)c(O)c12`, the TGI in the test on A549 NSCLC, in the test on CAKI-1 renal, in the test with EKVX NSCLC, in the test on MALME-3M melanoma, in the test on SF-295 CNS and with SF-539 CNS was greater than 100 µM throughout. Also, the TGI with SK-MEL-2 melanoma, in the test on SNB-19 CNS, in the test on SW-620 colon and in the test on UO-31 renal was greater than 100 µM throughout.

Take `CCOC(=O)c1sc2nc(SC)nc3c2c1NC(=O)CN3c1ccc(F)cc1`: the TGI with A549 NSCLC is 50.9 µM; in the test on CAKI-1 renal, greater than 100 µM; in the test on EKVX NSCLC, greater than 100 µM; in the test with MALME-3M melanoma it was greater than 100 µM; with SF-295 CNS, 57.9 µM; with SF-539 CNS, 33.3 µM. Also, the TGI is greater than 100 µM in the test with SK-MEL-2 melanoma, greater than 100 µM with SNB-19 CNS, greater than 100 µM with SW-620 colon and 46.9 µM in the test with UO-31 renal.

As to `CCOC(=O)C(C(=O)OCC)c1cc(-c2cc3ccccc3o2)oc(=O)c1C#N`, the TGI with A549 NSCLC is greater than 100 µM; with CAKI-1 renal, 38.1 µM; in the test with EKVX NSCLC, greater than 100 µM; in the test on MALME-3M melanoma, 55.7 µM; in the test on SF-295 CNS it was 48.2 µM; in the test with SF-539 CNS, 36.8 µM. For the same compound, the TGI with SK-MEL-2 melanoma is 38.2 µM; in the test on SNB-19 CNS, greater than 100 µM; in the test on SW-620 colon, 52.6 µM; with UO-31 renal, 90.3 µM.

On to `COc1cc2cc(C(=O)N3CC(CCl)c4ccc(NO)cc43)[nH]c2c(OC)c1OC` (stereo not given), for which the TGI is greater than 100 µM in the test with A549 NSCLC; 3.44 µM in the test with CAKI-1 renal; 2.15 µM in the test with EKVX NSCLC; 0.317 µM in the test with MALME-3M melanoma; 0.6 µM in the test with SF-295 CNS; 1.99 µM in the test with SF-539 CNS. In addition, the TGI was 0.325 µM with SK-MEL-2 melanoma, 11.1 µM in the test on SNB-19 CNS, greater than 100 µM in the test on SW-620 colon and 0.392 µM in the test with UO-31 renal.

Regarding `O=P1(Oc2ccc(Cl)cc2Cl)Oc2cc3ccccc3cc2O1`, the TGI with A549 NSCLC, with CAKI-1 renal, with EKVX NSCLC, with MALME-3M melanoma, with SF-295 CNS and in the test on SF-539 CNS was greater than 100 µM throughout. Moreover, the TGI with SK-MEL-2 melanoma, in the test with SNB-19 CNS, in the test with SW-620 colon and with UO-31 renal was greater than 100 µM in each case.

In the case of `CC(=O)NC1C(OCc2ccccc2)OC(CO)C(O)C1OCC(=O)NC(C(=O)NC(CCC(=O)NCCCCCC(=O)Nc1ccc2c(c1)CN1C(=O)c3ccccc3C1=N2)C(N)=O)C(C)C` (stereo not given), the TGI in the test with A549 NSCLC was greater than 100 µM; with CAKI-1 renal, greater than 100 µM; in the test on EKVX NSCLC, greater than 100 µM; in the test with MALME-3M melanoma it was 46.5 µM; in the test with SF-295 CNS, 60.8 µM; in the test with SF-539 CNS it was 37.7 µM. The TGI in the test on SK-MEL-2 melanoma was 64.8 µM; in the test with SNB-19 CNS, 47.7 µM; in the test on SW-620 colon it was greater than 100 µM; in the test with UO-31 renal it was greater than 100 µM.

Turning to `O=C(O)C1=C(CO)Oc2cc3c(cc2C1c1ccc2c(c1)OCO2)OCO3` (stereo not given), the TGI in the test with A549 NSCLC, with CAKI-1 renal, with EKVX NSCLC, with MALME-3M melanoma, with SF-295 CNS and with SF-539 CNS was greater than 100 µM each time. In addition, the TGI in the test on SK-MEL-2 melanoma, with SNB-19 CNS, in the test with SW-620 colon and in the test on UO-31 renal was greater than 100 µM throughout.

Consider `COc1ccc2c(O)c1-c1c(OC)ccc(c1O)SSc1ccc(OC)c(c1O)-c1c(OC)ccc(c1O)SS2`, for which the TGI in the test on A549 NSCLC was greater than 100 µM; in the test on CAKI-1 renal, greater than 100 µM; with EKVX NSCLC, 44 µM; in the test on MALME-3M melanoma, greater than 100 µM; in the test with SF-295 CNS, greater than 100 µM; with SF-539 CNS, 69.1 µM. Further, the TGI in the test on SK-MEL-2 melanoma was greater than 100 µM; with SNB-19 CNS it was greater than 100 µM; in the test with SW-620 colon it was greater than 100 µM; with UO-31 renal it was 14 µM.

For the origin of these results see PubChem BioAssay (NCI).
